Laboratory results from patent US10357533B2, “Drug for the effective control of acute and or chronic pain and a method for its administration” (PVP LABS PTE. LTD., priority 2016, dated 2019).
Where a SMILES comes first, the peptide text is derived from it. [ ]: non-standard residue; d: D form.

Tests used:
mice [1] = assay: Antinociceptive tolerance and withdrawal syndrome, tail flick test in mice; format: in vivo; conditions: for TFL, s, Baseline values (Mean ± SEM): before administering
Procedure: The tail flick test was the main method of evaluating peptide compound antinociceptive tolerance and withdrawal syndrome. The test involved evaluating tail flick latency (TFLtest). Baseline tail flick latency TFLbase was evaluated before administering the substances. The test was performed in outbred male mice.
The animals were randomized into 4 groups of 10 animals in each group: Group 1: control—the animals were administered subcutaneous injections of water for injections for 14 days; Group 2: single peptide compound administration group—the animals were administered water for injections for 13 days and peptide compound at a dose of 0.5 mg/kg on day 14 by subcutaneous injection; Group 3: chronic peptide compound administration group—the animals were administered with peptide compound at a dose of 0.5 mg/kg by subcutaneous injection for 14 days; Group 4: withdrawal group—the animals were administered with peptide compound at a dose of 0.5 mg/kg by subcutaneous injection for 14 days, withdrawal test was evaluated after 48 hours.
The last injection of the drug/water to groups 1-3 was administered 40 minutes before the test.

mice [2] = assay: Open field test and toxicity of high doses in mice; format: in vivo; conditions: intraperitoneally
Procedure: Testing of the influence of the injectable substance based on tetrapeptide (as in example 2) H-Tyr-D-Arg-Phe-Gly-NH2 on the behavior of animals, was provided in the study of the toxicity of high doses of the “open field” test and maintaining balance on a horizontal rod.
The aim of the experiment was to identify an effective dose of the substance that affects the behavior of the animals. It was tested on several animals after administration of different doses of peptide compound.
The experimental and control groups of male mice were taken from the same batch, about the same weight (22-24 g).
The substance was injected intraperitoneally in identical weight amounts to laboratory animals in the experimental and control groups, respectively. […] The measurement was started 15 minutes after injection.
Several groups were organized: without the introduction of the substance, and with the introduction of a solution of morphine or peptide. After 15 from injection we conducted measurement in the following order:
Each animal tested was introduced into a round, not brightly lit arena. The surface is divided into square blocks of 10 cm each. We count locomotor activity of the mouse when it crossed the square. The movement of the mouse in the center of the arena and on the periphery, are recorded separately. We registered the number of times the mouse stands on its hind legs “stand” and the number of times the mouse looks into a “burrow”—ie. holes in the floor. Observations were done visually and were simultaneously entered into a computer using a keyboard (semi-automatic registration).

patients = assay: Clinical application in patients with severe pain; format: in vivo, humans
Procedure: The use of the peptide compound in patients who have been informed about the drug and who have given their consent
When the morphine drug therapy was once again possible, the use of the experimental prototype of the drug was stopped.
Based on the extrapolation of animal data for dosages for humans, we decided to use 0.7-3 mg of the active tetrapeptide in a single dose, administered by subcutaneous injection, and under the supervision of a specialist. The drug was packaged in lyophilized form of 3 mg per vial before use and dissolved in 1-3 ml of water for injections.
The following parameters were recorded:
1. Time of onset of analgesic effect, duration of effect.
Dynamics of pain on a numerical scale of 0-10: 0—no pain, 10—unbearable pain. The patient makes regular notes on the intensity level of pain during treatment to assess the analgesic effect. Separately, the intensity of pain is noted before receiving the experimental prototype preparation, and during its' administration. 2. The physical activity of the patient. Measured on a scale: 1—normal activity, 2—activity is reduced; the patient is able to go to their own doctor, 3—bed rest at least 50% of the day, 4—bed rest for more than 50% of the day, 5—complete bed rest. 3. Subjective feelings of the patient A change of perception, mood, presence/absence of euphoria or dysphoria, discomfort in the body, feelings in the digestive tract.
Basically, the study was conducted in patients with somatic and internal types of pain, though often it was not possible to accurately classify the type of pain.

[3] = 0.5 mg/kg subcutaneous for 14 days, withdrawal test after 48 hours

N=C(N)NCCC[C@@H](NC(=O)[C@@H](N)Cc1ccc(O)cc1)C(=O)N[C@@H](Cc1ccccc1)C(=O)NCC(N)=O [Peptide compound, H-Tyr-D-Arg-Phe-Gly-NH2] (H-Y[dR]FG-NH2)
MPE, % (Mean ± SEM) (mice [1]; 0.5 mg/kg subcutaneous chronic dosing for 14 days): 50.5 ± 13.92 %
TFL, s, After dosing (Mean ± SEM) (mice [1]; 0.5 mg/kg subcutaneous chronic dosing for 14 days, 40 minutes before the test): 8.6 ± 1.25 s
MPE, % (Mean ± SEM) (mice [1]; [3]): 1.3 ± 3.72%
TFL, s, After dosing (Mean ± SEM) (mice [1]; [3]): 4.8 ± 0.36 s
MPE, % (Mean ± SEM) (mice [1]; 0.5 mg/kg subcutaneous single dose on day 14): 43.3 ± 11.19 %
TFL, s, After dosing (Mean ± SEM) (mice [1]; 0.5 mg/kg subcutaneous single dose on day 14, 40 minutes before the test): 8.0 ± 1.03 s
tolerance or withdrawal syndrome (mice [1]; 0.5 mg/kg subcutaneously, single dosing or chronic treatment): lack of tolerance or withdrawal syndrome
TFL, s, Baseline values (Mean ± SEM) (mice [1]; group 0.5 mg/kg chronic dosing): 4.6 ± 0.26 s
TFL, s, Baseline values (Mean ± SEM) (mice [1]; group 0.5 mg/kg single dose): 4.5 ± 0.36 s
TFL, s, Baseline values (Mean ± SEM) (mice [1]; group 0.5 mg/kg withdrawal): 4.7 ± 0.24 s
doses that do not result in toxic effects (mice [2]): up to 200 EC50
toxic effects (mice [2]; dose of 100 mg/kg): the animals continued to move actively, breathing was not inhibited, and heart beats were stable
reduced activity moving around the field (mice [2]; open field, dose of 20-100 mg/kg, 15 minutes after injection): 20-25%
reduction in exploratory activity ("stand-burrow") (mice [2]; open field, large doses): 20-30%
duration of analgesic effect (patients; Patient 1, 3 mg 2 times a day): 8 to 12 h
subjective feelings / negative effects (patients; Patient 1, 3 mg 2 times a day, first injection): very light dysphoric effect for 10-15 minutes
degree of analgesia, pain scale 0-10 (patients; Patient 1, pain before 6-9, 3 mg 2 times a day): 1-3
Time of analgesia (onset) (patients; Patient 1, pancreatic cancer stage IV, pain 6-9, 3 mg 2 times a day subcutaneous, 5 days): 10 to 15 min
duration of analgesic effect (patients; Patient 2): 6 to 12 h
negative effects (patients; Patient 2): No negative effects were detected
degree of analgesia, pain scale 0-10 (patients; Patient 2, 2 mg three times first day, then 1.5 mg 2 times a day): 2-3
Time of analgesia (onset) (patients; Patient 2, colon cancer stage IV, 2 mg three times first day, then 1.5 mg 2 times a day, 4 days): 10 to 15 min
duration of analgesic effect (patients; Patient 3): 8 to 10 h
negative effects (patients; Patient 3): No negative effects were detected
Time of analgesia (onset) (patients; Patient 3, colon cancer stage IV, pain 7-10, 1.5 mg 2 times a day, 4 days): 10 to 15 min
degree of analgesia, pain scale 0-10 (patients; Patient 3, pain before 7-10, 1.5 mg 2 times a day): 1-3
duration of analgesic effect (patients; Patient 4): 8 to 10 h
negative effects (patients; Patient 4): No negative effects were detected
time of analgesic effect (onset) (patients; Patient 4, breast cancer stage IV, pain 7-10, 1.5 mg 2 times a day, 5 days): 10 to 20 min
degree of analgesia, pain scale 0-10 (patients; Patient 4, pain before 7-10, 1.5 mg 2 times a day): 1-3
duration of analgesic effect (patients; Patient 5): 8 to 10 h
negative effects (patients; Patient 5): No negative effects were detected
Time of analgesia (onset) (patients; Patient 5, breast cancer stage IV, pain 7-8, 0.7 mg two times a day, 6 days): 10 to 15 min
degree of analgesia, pain scale 0-10 (patients; Patient 5, pain before 7-8): 1-3
duration of analgesic effect (patients; Patient 6): 8 to 12 h
negative effects (patients; Patient 6): No negative effects were detected
Time of analgesia (onset) (patients; Patient 6, compression fracture of a vertebra, pain 7-8, 1.5 mg 2 times a day, 2 days): 10 to 15 min
degree of analgesia, pain scale 0-10 (patients; Patient 6, pain before 7-8): 1-3
adverse reactions (impaired consciousness, euphoria or dysphoria, digestive tract, respiratory depression, heart disorders) (patients; all of the cases (Patients 1-6)): no adverse reactions
